Experimental data reported in patent US11033600B2, “Protease transition state inhibitor prodrugs” (priority 2016, dated 2021).
Like-named read-outs stand apart in the source and are kept apart here.

Key:
[1] = target: norovirus 3CL protease (NV 3CLpro) (Norovirus, UniProt Q83883); test: FRET protease assay (3CL protease), enzyme inhibition; format: biochemical
Protocol: FRET protease assays. The FRET protease assay (3CL protease) was performed by preparing stock solutions of the substrate (Edans-DFHLQ/GP-Dabcyl, SEQ ID NO:1) and inhibitor in DMSO and diluting into assay buffer which was comprised of 20 mM HEPES buffer, pH 8, containing NaCl (200 mM), 0.4 mM EDTA, glycerol (60%), and 6 mM dithiothreitol (DTT). The protease was mixed with serial dilutions of each compound up to 100 μM or with DMSO in 25 μL of assay buffer and incubated at 37° C. for 30 min, followed by the addition of 25 μL of assay buffer containing substrate. Fluorescence readings were obtained using an excitation wavelength of 360 nm and an emission wavelength of 460 nm on a fluorescence microplate reader (FLx800; Biotec, Winoosk, Vt.) 1 h following the addition of substrate. Relative fluorescence units (RFU) were determined by subtracting background values (substrate-containing well without protease) from the raw fluorescence values. The dose-dependent FRET inhibition curves were fitted with a variable slope by using GraphPad Prism software (GraphPad, La Jolla, Calif.) in order to determine the IC50 values of the inhibitors.

[2] = tested on: NV in replicon harboring cells (HG23 cells); test: Cell-based assay: virus replication in NV replicon harboring cells (HG23 cells), qRT-PCR; parameters: species or system norovirus (NV)
Protocol: The effects of each inhibitor on virus replication were examined against NV in the NV replicon harboring cells (HG23 cells). Briefly, confluent and semi-confluent HG23 cells were incubated with medium containing DMSO (<0.1%) or each compound (up to 200 uM) for 48 h. After the incubation, total RNA was extracted and viral genome was quantitated with real-time quantitative RT-PCR (qRT-PCR). The EC50 values were determined by GraphPadPrism software.

[3] = Table 1, ester prodrugs, average of at least two determinations, read-out: IC50 (50% inhibitory concentration in the enzyme assay)
[4] = Table 1, ester prodrugs, HG23 cells, 48 h, read-out: EC50 (50% effective concentration in cell culture)
[5] = Table 2, carbamate prodrugs, read-out: IC50
[6] = Table 2, carbamate prodrugs, HG23 cells, 48 h, read-out: EC50

norovirus 3CL protease (NV 3CLpro), sequence (Q83883 1101-1281): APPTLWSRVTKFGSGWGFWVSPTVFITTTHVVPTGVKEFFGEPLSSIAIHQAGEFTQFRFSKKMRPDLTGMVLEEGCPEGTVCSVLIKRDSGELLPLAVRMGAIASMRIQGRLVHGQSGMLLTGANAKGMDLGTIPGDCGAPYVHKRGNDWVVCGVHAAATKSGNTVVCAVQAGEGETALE

Compound	IC50 [1, 3] [nM]	EC50 [2, 4] [µM]	IC50 [1, 5] [nM]	EC50 [2, 6] [µM]	EC50 ([2]; Norovirus, HG23, in μM, read-out: EC50) [µM]
CC(=O)OC([C@H](C[C@@H]1CCNC1=O)NC(=O)[C@H](CC(C)C)NC(=O)OCc1ccccc1)S(=O)(=O)O (stereo partly drawn) [Compound 1, (5S,8S)-5-Isobutyl-3,6,11-trioxo-8-(((S)-2-oxopyrrolidin-3-yl)methyl)-1-phenyl-2,10-dioxa-4,7-diazadodecane-9-sulfonate]	10500	0.6			
CCC(=O)OC([C@H](C[C@@H]1CCNC1=O)NC(=O)[C@H](CC(C)C)NC(=O)OCc1ccccc1)S(=O)(=O)O (stereo partly drawn) [Compound 2, (5S,8S)-5-Isobutyl-3,6,11-trioxo-8-(((S)-2-oxopyrrolidin-3-yl)methyl)-1-phenyl-2,10-dioxa-4,7-diazatridecane-9-sulfonate]	7500	0.7			
CCCC(=O)OC([C@H](C[C@@H]1CCNC1=O)NC(=O)[C@H](CC(C)C)NC(=O)OCc1ccccc1)S(=O)(=O)O (stereo partly drawn) [Compound 3, (5S,8S)-5-Isobutyl-3,6,11-trioxo-8-(((S)-2-oxopyrrolidin-3-yl)methyl)-1-phenyl-2,10-dioxa-4,7-diazatetradecane-9-sulfonate]	3700	1.3			
CCCCC(=O)OC([C@H](C[C@@H]1CCNC1=O)NC(=O)[C@H](CC(C)C)NC(=O)OCc1ccccc1)S(=O)(=O)O (stereo partly drawn) [Compound 4, (5S,8S)-5-Isobutyl-3,6,11-trioxo-8-(((S)-2-oxopyrrolidin-3-yl)methyl)-1-phenyl-2,10-dioxa-4,7-diazapentadecane-9-sulfonate]	3500	1.4			
CCCCCC(=O)OC([C@H](C[C@@H]1CCNC1=O)NC(=O)[C@H](CC(C)C)NC(=O)OCc1ccccc1)S(=O)(=O)O (stereo partly drawn) [Compound 5, (5 S, 8S)-5-Isobutyl-3,6,11-trioxo-8-(((S)-2-oxopyrrolidin-3-yl)methyl)-1-phenyl-2,10-dioxa-4,7-diazahexadecane-9-sulfonate]	2800	0.3			
CCCCCCCC(=O)OC([C@H](C[C@@H]1CCNC1=O)NC(=O)[C@H](CC(C)C)NC(=O)OCc1ccccc1)S(=O)(=O)O (stereo partly drawn) [Compound 6, (5S,8S)-5-Isobutyl-3,6,11-trioxo-8-(((S)-2-oxopyrrolidin-3-yl)methyl)-1-phenyl-2,10-dioxa-4,7-diazaoctadecane-9-sulfonate]	3000	0.5			
CC(C)C[C@H](NC(=O)OCc1ccccc1)C(=O)N[C@@H](C[C@@H]1CCNC1=O)C(OC(=O)c1ccccc1)S(=O)(=O)O (stereo partly drawn) [Compound 7, (5S,8S)-5-Isobutyl-3,6,11-trioxo-8-(((S)-2-oxopyrrolidin-3-yl)methyl)-1,11-diphenyl-2,10-dioxa-4,7-diazaundecane-9-sulfonate]	7200	0.8			
CC(C)C[C@H](NC(=O)OCc1ccccc1)C(=O)N[C@@H](C[C@@H]1CCNC1=O)C(OC(=O)C(C)C)S(=O)(=O)O (stereo partly drawn) [Compound 8, (5S,8S)-5-Isobutyl-12-methyl-3,6,11-trioxo-8-(((S)-2-oxopyrrolidin-3-yl)methyl)-1-phenyl-2,10-dioxa-4,7-diazatridecane-9-sulfonate]	3500	0.3			
CC(=O)OC([C@H](C[C@@H]1CCNC1=O)NC(=O)[C@H](CC1CCCCC1)NC(=O)OCc1cccc(Cl)c1)S(=O)(=O)O (stereo partly drawn) [Compound 9, (5 S, 8S)-1-(3-Chlorophenyl)-5-(cyclohexylmethyl)-3,6,11-trioxo-8-(((S)-2-oxopyrrolidin-3-yl)methyl)-2,10-dioxa-4,7-diazadodecane-9-sulfonate]	80	0.03			
CCC(=O)OC([C@H](CC1CCNC1=O)NC(=O)[C@H](CC1CCCCC1)NC(=O)OCc1cccc(Cl)c1)S(=O)(=O)O (stereo partly shown) [Compound 10, (5 S, 8S)-1-(3-chlorophenyl)-5-(cyclohexylmethyl)-3,6,11-trioxo-8-((2-oxopyrrolidin-3-yl)methyl)-2,10-dioxa-4,7-diazatridecane-9-sulfonate]	100	0.025			
CCCCCCCC(=O)OC([C@H](C[C@@H]1CCNC1=O)NC(=O)[C@H](CC1CCCCC1)NC(=O)OCc1cccc(Cl)c1)S(=O)(=O)O (stereo partly drawn) [Compound 12, (5 S, 8S)-1-(3-Chlorophenyl)-5-(cyclohexylmethyl)-3,6,11-trioxo-8-(((S)-2-oxopyrrolidin-3-yl)methyl)-2,10-dioxa-4,7-diazaoctadecane-9-sulfonate]	900	0.03			
CC(C)C(=O)OC([C@H](C[C@@H]1CCNC1=O)NC(=O)[C@H](CC1CCCCC1)NC(=O)OCc1cccc(Cl)c1)S(=O)(=O)O (stereo partly drawn) [Compound 13, (5 S, 8S)-1-(3-Chlorophenyl)-5-(cyclohexylmethyl)-12-methyl-3,6,11-trioxo-8-(((S)-2-oxopyrrolidin-3-yl)methyl)-2,10-dioxa-4,7-diazatridecane-9-sulfonate]	300	0.03			
O=C(N[C@@H](CC1CCCCC1)C(=O)N[C@@H](C[C@@H]1CCNC1=O)C(OC(=O)C1CCCCC1)S(=O)(=O)O)OCc1cccc(Cl)c1 (stereo partly drawn) [Compound 14, (5 S,8S)-1-(3-Chlorophenyl)-11-cyclohexyl-5-(cyclohexylmethyl)-3,6,11-trioxo-8-(((S)-2-oxopyrrolidin-3-yl)methyl)-2,10-dioxa-4,7-diazaundecane-9-sulfonate]	400	0.02			
CC(=O)OC([C@H](C[C@@H]1CCNC1=O)NC(=O)[C@H](CC1CCCCC1)NC(=O)OCc1ccccc1)S(=O)(=O)O (stereo partly drawn) [Compound 15, (5S,8S)-5-(Cyclohexylmethyl)-3,6,11-trioxo-8-(((S)-2-oxopyrrolidin-3-yl)methyl)-1-phenyl-2,10-dioxa-4,7-diazadodecane-9-sulfonate]	7500	0.2			
O=C(N[C@@H](CC1CCCCC1)C(=O)N[C@@H](C[C@@H]1CCNC1=O)C(OC(=O)C1CCCCC1)S(=O)(=O)O)OCc1ccccc1 (stereo partly drawn) [Compound 16, (5S,8S)-11-Cyclohexyl-5-(cyclohexylmethyl)-3,6,11-trioxo-8-(((S)-2-oxopyrrolidin-3-yl)methyl)-1-phenyl-2,10-dioxa-4,7-diazaundecane-9-sulfonate]	600	0.06			
CCCCCCOC(=O)OC([C@H](CC1CCNC1=O)NC(=O)[C@H](CC1CCCCC1)NC(=O)OCc1cccc(Cl)c1)S(=O)(=O)O (stereo partly shown) [Compound 17, (5 S, 8S)-1-(3-chlorophenyl)-5-(cyclohexylmethyl)-3,6,11-trioxo-8-((2-oxo-pyrrolidin-3-yl)methyl)-2,10,12-trioxa-4,7-diazaoctadecane-9-sulfonate]	800	0.025			
COC(=O)CNC(=O)OC([C@H](C[C@@H]1CCNC1=O)NC(=O)[C@H](CC(C)C)NC(=O)OCc1ccccc1)S(=O)(=O)O (stereo partly drawn) [Compound 18, (5 S,8S)-5-Isobutyl-3,6,11,14-tetraoxo-8-(((S)-2-oxopyrrolidin-3-yl)methyl)-1-phenyl-2,10,15-trioxa-4,7,12-triazahexadecane-9-sulfonate]			3100	0.4	
COC(=O)C(C)NC(=O)OC([C@H](C[C@@H]1CCNC1=O)NC(=O)[C@H](CC(C)C)NC(=O)OCc1ccccc1)S(=O)(=O)O (stereo partly drawn) [Compound 19, (5 S,8S)-5-Isobutyl-13-methyl-3,6,11,14-tetraoxo-8-(((S)-2-oxopyrrolidin-3-yl)methyl)-1-phenyl-2,10,15-trioxa-4,7,12-triazahexadecane-9-sulfonate]			1800	0.3	
COC(=O)C(NC(=O)OC([C@H](C[C@@H]1CCNC1=O)NC(=O)[C@H](CC(C)C)NC(=O)OCc1ccccc1)S(=O)(=O)O)C(C)C (stereo partly drawn) [Compound 20, (5 S,8S)-5-Isobutyl-13-isopropyl-3,6,11,14-tetraoxo-8-(((S)-2-oxopyrrolidin-3-yl)methyl)-1-phenyl-2,10,15-trioxa-4,7,12-triazahexadecane-9-sulfonate]			2500	0.4	
COC(=O)C(C)NC(=O)OC([C@H](C[C@@H]1CCNC1=O)NC(=O)[C@H](CC1CCCCC1)NC(=O)OCc1cccc(Cl)c1)S(=O)(=O)O (stereo partly drawn) [Compound 21, (5 S, 8S)-1-(3-Chlorophenyl)-5-(cyclohexylmethyl)-13-methyl-3,6,11,14-tetraoxo-8-(((S)-2-oxopyrrolidin-3-yl)methyl)-2,10,15-trioxa-4,7,12-triazahexadecane-9-sulfonate]			800	0.025	
COC(=O)C(NC(=O)OC([C@H](C[C@@H]1CCNC1=O)NC(=O)[C@H](CC1CCCCC1)NC(=O)OCc1cccc(Cl)c1)S(=O)(=O)O)C(C)C (stereo partly drawn) [Compound 22, (5 S,8S)-1-(3-Chlorophenyl)-5-(cyclohexylmethyl)-13-isopropyl-3,6,11,14-tetraoxo-8-(((S)-2-oxopyrrolidin-3-yl)methyl)-2,10,15-trioxa-4,7,12-triazahexadecane-9-sulfonate]			500	0.04	
O=C[C@H](C[C@@H]1CCNC1=O)NC(=O)[C@H](CC1CCCCC1)NC(=O)OCc1cccc(Cl)c1 [Compound 25, reference compound]					0.02
